Assay results reported in patent publication US20220096516A1, “OLIGONUCLEOTIDE MOLECULE AND APPLICATION THEREOF IN TUMOR THERAPY” (Ractigen Therapeutics, priority 2019, published 2022).
d = 2'-deoxy (DNA); r = 2'-OH (RNA)

Assays:
Format in all cases: cell-based, human
[1] = system: prostatic cancer cell line PC3; experiment: Cell viability by CCK-8 method, PC3; settings: PC3, 10 nM, 72 h, FIG. 7B
Description: (§1) 8 LHPP promoter-targeting saRNAs were individually transfected into cancer cells at 10 nM for 72 h. In FIG. 7A, the expression level of LHPP mRNA was analyzed by RT-qPCR. In FIG. 7B, cell viability in the saRNA treatment group was evaluated by the CCK-8 method and recorded as a percentage relative to the viability of cells in a control (Mock) treatment group.
(§2) The cell viability was detected by the following CCK-8 method: the cCells were plated into a 96-well plate at 3-5×10^3 cells/well, cultured overnight, and transfected with the oligonucleotide duplexes. After 72 hour of transfection, 10 uL of CCK-8 solution (Dojindo Molecular Technologies) was added into each well. After 1 hour of incubation at 37° C., a microplate reader was used to measure absorbances at 450 nm.
(§3) In order to further evaluate the effect of LHPP saRNAs in inducing the mRNA expression of the LHPP gene and inhibiting the proliferation of cancer cells, eight screened saRNAs (RAG7-132, RAG7-133, RAG7-139, RAG7-177, RAG7-178, RAG7-694, RAG7-707 and RAG7-892) each were transfected into the liver cancer cell lines Huh7 (Medical Cell Resource Center, Tohoku University, Japan), HepG2 (ATCC), Hep3B (ATCC), Li-7 (Medical Cell Resource Center, Tohoku University, Japan) and SK-HEP-1 (ATCC), a lung cancer cell line A549 (ATCC), a bladder cancer cell line T24 (ATCC), a prostatic cancer cell line PC3 (ATCC), and a glioma cell line U87MG (ATCC). The mRNA expression and cell viability of the transfected cells were measured.

[2] = system: HepG2 cells; experiment: saRNA in combination with chemical drugs, CCK-8 viability and combination index (Compusyn), HepG2
Description: The saRNAs were transfected into cancer cells at different concentrations in combination with a panel of chemical drugs. In FIG. 8A, cell viability in the saRNA treatment group was evaluated by the CCK-8 method and recorded as a percentage relative to the viability of cells in a control (Mock) treatment group. In FIG. 8B, Compusyn© version 1.0 software was used to draw a combination index graphs; and to calculate combination index values as shown in FIG. 8C.
The compounds used in the study included: Sorafenib (Sora) (SELLECK, S1040), Lenvatinib (Lenv) (SELLECK, S1164), Regorafenib (Rego) (SELLECK, S1178), and Cabozantinib (Cabo) (SELLECK, S1119). Cells were transfected with each candidate saRNAs at varying concentration gradients for 24 hours. Thereafter, the aforementioned compounds were added to the transfected cells at a concentration of 5 μM and the cells were incubated with the compounds for 48 hours. Cell viability was measured using the CCK-8 method. Compusyn© version 1.0 software (ComboSyn, Inc. Paramus, N.J., USA) was used to analyze the combination index (CI) of drugs, wherein CI<1 represented a synergistic effect, CI=1 represented an additive effect, and CI>1 represented an antagonistic effect.

[3] = system: LHPP gene; experiment: LHPP mRNA expression by RT-qPCR in cancer cell lines; settings: 72 h
Description: as §1, with “into liver” for “into”, “6A,” for “7A,”, “6B,” for “7B,”
as §1, §3

[4] = system: HepG2 cells; experiment: Cell viability by CCK-8 method, HepG2; settings: HepG2, 10 nM, 72 h, FIG. 6B
Description: as §1, with “into liver” for “into”, “6A,” for “7A,”, “6B,” for “7B,”
as §2, with “nm. […]” for “nm.”

[5] = system: SK-HEP-1 cells; experiment: Cell viability by CCK-8 method, SK-HEP-1; settings: SK-HEP-1, 10 nM, 72 h, FIG. 6B
Description: as §1, with “into liver” for “into”, “6A,” for “7A,”, “6B,” for “7B,”
as §2, with “nm. […]” for “nm.”

RAG7-133: saRNA duplex; sense GCUCUUUGUCCGCUGAUCUTT (SEQ ID NO: 1), antisense AGAUCAGCGGACAAAGAGCTT (SEQ ID NO: 165) (sugars from the 5' end r19 d2, backbone not given here)
cell proliferation (cell viability, CCK-8) [1]: inhibited cell proliferation | combination index (CI) ([2]; high dose (25 nM to 100 nM) saRNA with Regorafenib 5 μM): < 0.3 | combination index (CI) ([2]; saRNA with Cabozantinib 5 μM): < 1 | combination index (CI) ([2]; saRNA with Lenvatinib 5 μM): > 1 | combination index (CI) ([2]; saRNA with Sorafenib 5 μM): < 1 | expression of LHPP gene (mRNA) ([3]; Hep3B, 10 nM, FIG. 6A): induced the expression of LHPP gene to different degrees | expression of LHPP gene (mRNA) ([3]; HepG2, 10 nM, FIG. 6A): induced the expression of LHPP gene to different degrees | expression of LHPP gene (mRNA) ([3]; Huh7, 10 nM, FIG. 6A): induced the expression of LHPP gene to different degrees | expression of LHPP gene (mRNA) ([3]; Li-7, 10 nM, FIG. 6A): induced the expression of LHPP gene to different degrees | expression of LHPP gene (mRNA) ([3]; PC3, 10 nM, FIG. 7A): induced the expression of LHPP gene to different degrees | expression of LHPP gene (mRNA) ([3]; SK-HEP-1, 10 nM, FIG. 6A): induced the expression of LHPP gene to different degrees | expression of LHPP gene (mRNA) ([3]; T24, 10 nM, FIG. 7A): induced the expression of LHPP gene to different degrees | expression of LHPP gene (mRNA) ([3]; U87MG, 10 nM, FIG. 7A): induced the expression of LHPP gene to different degrees | cell proliferation (cell viability, CCK-8) [4]: inhibited cell proliferation | cell proliferation (cell viability, CCK-8) [5]: inhibited cell proliferation
